According to publication PMC9886975, “Ligand recognition mechanism of the human relaxin family peptide receptor 4 (RXFP4)” (Nature Communications, 2023):
Values joined by “and” are separate entries in the source; they are usually repeats but may differ in a detail not shown here. Equal values may be shown once. Read-outs that look alike come from different tables or passages of the source.

Assays:
human RXFP4 [1] = target: T1, human RXFP4 (Homo sapiens, UniProt Q8TDU9); test: competitive Eu-R3/I5 binding, RXFP4
T1 construct: expressed in transfected cells
T1 sequence (Q8TDU9 whole entry): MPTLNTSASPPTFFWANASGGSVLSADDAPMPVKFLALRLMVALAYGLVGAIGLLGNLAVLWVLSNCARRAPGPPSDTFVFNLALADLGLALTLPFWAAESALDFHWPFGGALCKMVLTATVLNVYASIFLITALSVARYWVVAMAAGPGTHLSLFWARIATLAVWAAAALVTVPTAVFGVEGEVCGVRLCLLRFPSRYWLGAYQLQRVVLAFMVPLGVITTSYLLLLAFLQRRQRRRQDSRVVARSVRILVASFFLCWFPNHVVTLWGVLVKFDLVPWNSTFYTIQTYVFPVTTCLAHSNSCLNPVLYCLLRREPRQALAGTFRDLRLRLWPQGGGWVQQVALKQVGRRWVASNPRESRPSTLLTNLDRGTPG
Method: CHO-K1 cells stably transfected with RXFP3 or RXFP4 were plated onto pre-coated poly-L-lysine 96-well plates. The competitive binding assays were performed with 5 nM Eu-H3 B1-22R (RXFP3) or Eu-R3/I5 (RXFP4) in the presence of increasing amounts of ligands as previously described[21],[86],[87]. Time-resolved fluorescence measurements were carried out at an excitation wavelength of 340 nm and an emission wavelength of 614 nm on a BMG POLARstar plate reader (BMG Labtech, Melbourne, Australia). Binding was performed in at least three independent experiments with triplicate determinations within each assay. Data are presented as means ± S.E.M. of specific binding and were fitted using a one-site binding curve in Prism software (GraphPad).
(§1) All functional study data were analyzed using GraphPad Prism 8.3 (GraphPad Software) and presented as means ± S.E.M. from at least three independent experiments. Dose-response curves were evaluated with a three-parameter logistic equation. The significance was determined with either a two-tailed Student’s t-test or one-way ANOVA with Dunnett’s multiple comparison test, and P < 0.05 was considered statistically significant.

human RXFP4 [2] = target: T1, human RXFP4; test: inhibition of forskolin-induced cAMP accumulation, WT RXFP4 (hRXFP4-CHO); assay type: cell-based
Method: (§2) CHO-K1 (ATCC, Cat#CCL-61) cells stably expressing human RXFP4 (hRXFP4-CHO) or RXFP3 (hRXFP3-CHO) were maintained in DMEM/F12 (Gibco) supplemented with 10% (v/v) fetal bovine serum (FBS) and 2 mM L-glutamine. Human embryonic kidney 293 T cells containing SV40 large T-antigen (HEK293T, ATCC, Cat#64127316) were maintained in DMEM (Gibco) supplemented with 10% (v/v) FBS, 1 mM sodium pyruvate (Gibco), 100 units/mL penicillin and 100 μg/mL streptomycin at 37 °C in 5% CO2. For cAMP assays in mutants, HEK293T cells were seeded onto 6-well cell culture plates at a density of 7 × 10^5 cells per well. After overnight incubation, cells were transfected with WT or mutant receptors using Lipofectamine 3000 transfection reagent (Invitrogen). Following 24 h culturing, the transfected cells were ready for detection.
(§3) Ligands were verified for their bioactivity in the beginning in hRXFP4-CHO, which were ready for use after 24 h culturing. For assaying mutants, HEK293T cells were used 24 h post transfection. Cells were digested with 0.02% (w/v) EDTA and seeded onto 384-well microtiter plates at a density of 8 × 10^5 cells/mL in cAMP stimulation buffer [HBSS supplemented with 5 mM HEPES, 0.1% (w/v) bovine serum albumin (BSA) and 0.5 mM 3-isobutyl-1-methylxanthine]. The cells were stimulated with different concentrations of ligands plus 1.5 μM forskolin in RXFP4 and 4 μM forskolin in RXFP3. […] The time-resolved fluorescence resonance energy transfer (TR-FRET) signals were detected by an EnVision multilabel plate reader (PerkinElmer) with the emission window ratio of 665 nm over 620 nm under 320 nm excitation. […]
as §1

RXFP4 WT = target: T2, RXFP4 WT (Homo sapiens, UniProt Q8TDU9); test: cAMP accumulation, WT RXFP4 (HEK293T); assay type: cell-based; settings: 1.5 μM forskolin, mean ± S.E.M.; for EC50: 40 min RT, TR-FRET, n = 6 to 8
T2 construct: RXFP4(1-374)-; expressed in transfected cells; host or cells: HEK293T, transient (pCMV6)
T2 sequence (Q8TDU9 whole entry): as above
From the text: (§4) The full-length human RXFP4 (NCBI Reference Sequence: NM_181885.3) was cloned into a modified pFastBac vector (Invitrogen) with HA signal peptide to enhance receptor expression, followed by a 10× histidine tag and BRIL insertion at the N terminus. LgBiT subunit (Promega) was fused at the C terminus of RXFP4 connected by a 15-amino acid polypeptide linker. […] The engineered human Gαi2, Gβ1, bovine Gγ2, and scFv16 were cloned into the pFastBac vector (Invitrogen), respectively. For cAMP accumulation assay, human RXFP4 and RXFP3 (NCBI Reference Sequence: NM_016568.3) were cloned into pCMV6 constructs (OriGene Technologies). The mutant receptors were modified by site-directed mutagenesis in the setting of the WT constructs, with the primers designed by QuikChange Primer Design [QuickChange Primer Design (http://agilent.com.cn)] and carried out using Phanta Max Master (Vazyme). N-terminal Flag tag was added to both WT and mutant receptors for surface expression measurement. Sequences of all primers used in this study were provided in Supplementary Table 6, and all the constructs were confirmed by DNA sequencing.
as §2, with “After overnight incubation, cells were transfected with WT or mutant receptors using Lipofectamine 3000 transfection reagent (Invitrogen).” left out
(§5) Ligands were verified for their bioactivity in the beginning in hRXFP4-CHO, which were ready for use after 24 h culturing. […] The time-resolved fluorescence resonance energy transfer (TR-FRET) signals were detected by an EnVision multilabel plate reader (PerkinElmer) with the emission window ratio of 665 nm over 620 nm under 320 nm excitation. […]
(§6) Inhibition of forskolin-induced cAMP accumulation was performed in HEK293T cells transiently transfected with WT and mutant receptors. All the mutant constructs were modified by single-point mutation in the setting of the WT receptor. cAMP accumulation data were analyzed using a three-parameter logistic equation to determine pEC50 and Emax values. Emax values for mutants are defined as the window between the maximal response and vehicle control (no ligand) and expressed as a percentage of the WT. Cell surface expression was assessed by flow cytometry to detect the N-terminal Flag epitope label on the receptors and normalized to the WT receptor (shown as percentage). […]

RXFP4 W97A = target: T3, RXFP4 W97A (Homo sapiens, UniProt Q8TDU9, W97A); test: cAMP accumulation, RXFP4 W97A; assay type: cell-based
T3 construct: RXFP4(1-374)-; expressed in transfected cells; host or cells: HEK293T, transient (pCMV6)
T3 sequence (Q8TDU9 whole entry W97A): as the sequence (Q8TDU9 whole entry) above, with W97A counted along it
From the text: as §4, §2, §3, §6

RXFP4 F105A = target: T4, RXFP4 F105A (Homo sapiens, UniProt Q8TDU9, F105A); test: cAMP accumulation, RXFP4 F105A; assay type: cell-based
T4 construct: RXFP4(1-374)-; expressed in transfected cells; host or cells: HEK293T, transient (pCMV6)
T4 sequence (Q8TDU9 whole entry F105A): as the sequence (Q8TDU9 whole entry) above, with F105A counted along it
From the text: as §4, §2, §3, §6

RXFP4 K273A = target: T5, RXFP4 K273A (Homo sapiens, UniProt Q8TDU9, K273A); test: cAMP accumulation, RXFP4 K273A; assay type: cell-based
T5 construct: RXFP4(1-374)-; expressed in transfected cells; host or cells: HEK293T, transient (pCMV6)
T5 sequence (Q8TDU9 whole entry K273A): as the sequence (Q8TDU9 whole entry) above, with K273A counted along it
From the text: as §4
as §2, with “After overnight incubation, cells were transfected with WT or mutant receptors using Lipofectamine 3000 transfection reagent (Invitrogen).” left out
as §5, §6

RXFP4 H299A = target: T6, RXFP4 H299A (Homo sapiens, UniProt Q8TDU9, H299A); test: cAMP accumulation, RXFP4 H299A; assay type: cell-based
T6 construct: RXFP4(1-374)-; expressed in transfected cells; host or cells: HEK293T, transient (pCMV6)
T6 sequence (Q8TDU9 whole entry H299A): as the sequence (Q8TDU9 whole entry) above, with H299A counted along it
From the text: as §4, §2, §3, §6

RXFP4 L118S+V122S = target: T7, RXFP4 L118S+V122S (Homo sapiens, UniProt Q8TDU9, L118S/V122S); test: cAMP accumulation, RXFP4 L118S+V122S; assay type: cell-based; settings: HEK293T
T7 construct: RXFP4(1-374)-; expressed in transfected cells; host or cells: HEK293T, transient (pCMV6)
T7 sequence (Q8TDU9 whole entry L118S/V122S): as the sequence (Q8TDU9 whole entry) above, with L118S, V122S counted along it
From the text: as §4
as §2, with “After overnight incubation, cells were transfected with WT or mutant receptors using Lipofectamine 3000 transfection reagent (Invitrogen).” left out
as §5, §6

RXFP4 T295V = target: T8, RXFP4 T295V (Homo sapiens, UniProt Q8TDU9, T295V); test: cAMP accumulation, RXFP4 T295V; assay type: cell-based
T8 construct: RXFP4(1-374)-; expressed in transfected cells; host or cells: HEK293T, transient (pCMV6)
T8 sequence (Q8TDU9 whole entry T295V): as the sequence (Q8TDU9 whole entry) above, with T295V counted along it
From the text: as §4
as §2, with “After overnight incubation, cells were transfected with WT or mutant receptors using Lipofectamine 3000 transfection reagent (Invitrogen).” left out
as §5, §6

[3] = HEK293T, 1.5 μM forskolin, mean ± S.E.M., n = 3, N.A., not active, read-out: pEC50 (converted)

CCOc1cc2c(cc1OC)CCN(C(=O)N1CCOCC1)[C@H]2CCc1c[nH]c2ccc(OC)cc12 [DC591053, (S)-(7-ethoxy-6-methoxy-1-(2-(5-methoxy-1H-indol-3-yl)ethyl)−3,4-dihydroisoquinolin-2(1H)-yl)(morpholino)methanone]
Ki (human RXFP4 [1]; stably-transfected CHO-K1, 5 nM Eu-R3/I5, mean ± S.E.M., n = 3, read-out: pKi (converted)): 112 nM
agonism (human RXFP4 [2]; stably-transfected CHO-K1): full agonism
EC50 (human RXFP4 [2]; stably-transfected CHO-K1, 1.5 μM forskolin, 40 min RT, TR-FRET, mean ± S.E.M., n = 3, read-out: pEC50 (converted)): 57.5 nM
EC50 (RXFP4 WT; HEK293T, read-out: pEC50 (converted)): 34.7 nM
Emax (RXFP4 WT; HEK293T): 97.18 ± 3.11 % WT
decrease of potency vs WT (RXFP4 W97A; HEK293T): 1.6 fold
EC50 (RXFP4 W97A; [3]): 56.2 nM
Emax (RXFP4 W97A; HEK293T, mean ± S.E.M.): 108.65 ± 10.04 % WT
decrease of potency vs WT (RXFP4 F105A; HEK293T): 4.9 fold
EC50 (RXFP4 F105A; HEK293T, 1.5 μM forskolin, mean ± S.E.M., n = 3, read-out: pEC50 (converted)): 170 nM
Emax (RXFP4 F105A; HEK293T, mean ± S.E.M.): 57.39 ± 4.17 % WT
EC50 (RXFP4 K273A; HEK293T, 1.5 μM forskolin, mean ± S.E.M., n = 3 or 4, read-out: pEC50 (converted)): 1860 nM
Emax (RXFP4 K273A; HEK293T, mean ± S.E.M.): 68.51 ± 8.34 % WT
reduction of Emax vs WT (RXFP4 H299A; HEK293T): 65%
EC50 (RXFP4 H299A; [3]): 3.63 nM
Emax (RXFP4 H299A; HEK293T, mean ± S.E.M.): 36.04 ± 4.01 % WT
decrease of potency vs WT (RXFP4 L118S+V122S): 20.9 fold
EC50 (RXFP4 L118S+V122S; 1.5 μM forskolin, mean ± S.E.M., n = 3, N.A., not active): 724 nM
Emax (RXFP4 L118S+V122S; mean ± S.E.M.): 84.85 ± 8.36 % WT
EC50 (RXFP4 T295V; HEK293T, 1.5 μM forskolin, mean ± S.E.M., n = 3 to 5, read-out: pEC50 (converted)): 64.6 nM
Emax (RXFP4 T295V; HEK293T, mean ± S.E.M.): 30.00 ± 4.54 % WT

CC[C@H](C)[C@@H]1NC(=O)[C@H](Cc2ccc(O)cc2)NC(=O)[C@H]([C@@H](C)CC)NC(=O)[C@H](C(C)C)NC(=O)[C@H]([C@@H](C)O)NC(=O)[C@H](CCCNC(=N)N)NC(=O)[C@H]([C@@H](C)CC)NC(=O)[C@H](Cc2ccc(O)cc2)NC(=O)[C@H](CCC(=O)O)NC(=O)[C@H](CC(C)C)NC(=O)CNC(=O)[C@@H](NC(=O)[C@H](CC(C)C)NC(=O)[C@H](CCCNC(=N)N)NC(=O)[C@@H](NC(=O)[C@H](CO)NC(=O)[C@H](CCC(=O)O)NC(=O)[C@@H](N)CCCCN)C(C)C)CSSC[C@@H]2NC(=O)[C@@H](NC(=O)[C@H](CC(C)C)NC(=O)[C@@H](NC(=O)[C@H](CCC(N)=O)NC(=O)[C@H](CC(C)C)NC(=O)[C@H](CC(=O)O)NC(=O)[C@@H](N)CCC(N)=O)[C@@H](C)O)CSSC[C@H](NC(=O)CNC(=O)[C@H](CC(=O)O)NC(=O)[C@H]([C@@H](C)O)NC2=O)C(=O)N[C@@H](CO)C(=O)N[C@@H](CCSC)C(=O)N[C@@H]([C@@H](C)O)C(=O)N[C@@H](CC(=O)O)C(=O)N[C@@H](CC(C)C)C(=O)N[C@@H](CO)C(=O)N[C@@H](C)C(=O)N[C@@H](CC(C)C)C(=O)N[C@H](C(=O)O)CSSC[C@@H](C(=O)N[C@@H](C)C(=O)N[C@@H](CO)C(=O)N[C@@H](CO)C(=O)N[C@@H](CCCNC(=N)N)C(=O)N[C@@H](Cc2c[nH]c3ccccc23)C(=O)O)NC1=O [INSL5, insulin-like peptide 5]
Ki (human RXFP4 [1]): 6.46 nM
EC50 (human RXFP4 [2]): 1.58 nM
Emax (RXFP4 WT; HEK293T): 99.88 ± 2.28 % WT and 98.86 ± 3.65 % WT
EC50 (RXFP4 WT; pEC50, HEK293T): 0.759 nM and 0.955 nM
EC50 (RXFP4 W97A): 15.5 nM
Emax (RXFP4 W97A; HEK293T, mean ± S.E.M.): 61.33 ± 5.34 % WT
EC50 (RXFP4 F105A): 10 nM
Emax (RXFP4 F105A; HEK293T, mean ± S.E.M.): 80.16 ± 4.08 % WT
EC50 (RXFP4 K273A): 3.55 nM
Emax (RXFP4 K273A; HEK293T, mean ± S.E.M.): 58.10 ± 7.38 % WT
EC50 (RXFP4 H299A): 0.955 nM
Emax (RXFP4 H299A; HEK293T, mean ± S.E.M.): 30.77 ± 3.77 % WT
response (RXFP4 L118S+V122S): inactive
EC50 (RXFP4 T295V): 0.692 nM
Emax (RXFP4 T295V; HEK293T, mean ± S.E.M.): 91.17 ± 6.47 % WT
